Laboratory results from US20060094645A1, “Method for defining and treating chemically-induced immune disorders using tumor necrosis factor (TFNalpha), interleukin-1 (lL-1), and interleulin-6R(lL-6R) antagonists” (priority 2004, published 2006).

Molecular target: T1, TNF (Homo sapiens, UniProt P01375)
T1 construct: endogenous in cells; host or cells: the patients' own TNF in vivo
Assay: Case report: Arthritis and Vasculitis associated with silicone breast implants, anti-TNF treatment
Assay type: in vivo
Settings: patient after implant removal; earlier treatment for over 20 years with corticosteroids and methotrexate

T1 sequence (P01375 77-233 limits assumed): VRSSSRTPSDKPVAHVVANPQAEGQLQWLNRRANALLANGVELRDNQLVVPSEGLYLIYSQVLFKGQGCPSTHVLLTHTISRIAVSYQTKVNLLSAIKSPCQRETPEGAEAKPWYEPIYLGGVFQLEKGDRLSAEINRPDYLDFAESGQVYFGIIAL

outcome of Arthritis and Vasculitis associated with silicone breast implants: without success
Compound: CN(Cc1cnc2nc(N)nc(N)c2n1)c1ccc(C(=O)N[C@@H](CCC(=O)O)C(=O)O)cc1 [methotrexate]
